Measured values: paper PMC4796321, “Type 1 diabetes vaccine candidates promote human Foxp3^+Treg induction in humanized mice” (Nature Communications, 2016)
pIC50: −log10 of the molar value.

Target: HLA-DQ8
Assay: Competitive in vitro HLA-DQ8 binding assay
Design: species or system human
Settings: competition with FITC-labelled GAD65 253-265 R255F peptide (10 μM), thrombin-cleaved HLA-DQ8 monomers 0.4 μM, 48 h at 37 °C; one-site competitive binding fit
Description: Competitive binding assays were carried out according to previously established procedures[30][67][68]: HLA-DQ8 monomers were kindly provided by R.A.W. from the NIH Tetramer Core Facility (Atlanta, USA). The CLIP peptide of HLA-DQ8 molecules was cleaved off by incubation with thrombin (Novagen) for 2 h (ref. [69]).
Specifically, a FITC-labelled GAD65 253-265^R255F peptide (IAFFKMFPEVKEK) was used as an indicator peptide (10 μM) for the binding reaction together with thrombin-cleaved HLA-DQ8 monomers (0.4 μM) and increasing concentrations of competitor peptides (natural insulin B:9-23, ins.mim.1,2,3,4, MP185-204). The MP185-204 peptide ([…]) was used as a positive DQ8-binding control. The indicator peptide incubated with DQ8 monomers in the absence of competitor peptide was used as positive control. For background analysis the binding reaction was performed without HLA-DQ8 monomers. The binding reaction was incubated for 48 h at 37 °C. Assays were then captured using anti-DQ antibody-coated plates (SPV-L3, Abcam, 15 μg ml^−1). Detection was performed using anti-FITC HRP (Abcam, 1:1,000) antibodies in combination with TMB substrate (BD Biosciences) and subsequent analysis with the Epoch plate reader (Biotech) at 450 and 405 nm. […]

Row | Substance | pIC50
1 | ins.mim.1: novel human insulin-B-chain-10-23 mimetope with 14E, 21G and 22E | 5.49
2 | ins.mim.2: insulin-B:10-23 peptide variant with 21G and 22E, previously established | 5.20
